Experimental data reported in publication PMC6161288, “Bioavailability of Eurycomanone in Its Pure Form and in a Standardised Eurycoma longifolia Water Extract” (Pharmaceutics, 2018).
≈ marks a conversion by molar mass, not a printed value.

Tests used:
Plasma stability, mice = type: in vitro ADME; conditions: 5 µM, 37 °C, up to 4 h, compared with human, rat and dog plasma
Method: (§1) The plasma stability was estimated by preparing 5 µM of eurycomanone in 600 µL plasma in triplicates. The plasma stability of eurycomanone was determined in five types of plasma (mice, rat, dog, monkey, and human). The reaction was kept at 37 °C and ACN (100 µL) was added at timepoints 0, 30 min, and 1, 2, and 4 h to the reaction mixture (100 µL). The supernatant (10,000 rpm, 10 min, 4 °C) was collected and analysed by LC-MS/MS. The standards (propantheline bromide and enalapril) were analysed in triplicates.

[1] = Rat liver hepatocyte stability; type: in vitro ADME; conditions: rat liver hepatocytes
[2] = tested on: HepG2 cell-induced tumours; design: method as in earlier work; conditions: 17 mg/kg orally, nude mice with HepG2 cell-induced tumours; cited from earlier work
Plasma stability, human = type: in vitro ADME; conditions: 5 µM, 37 °C, up to 4 h
Method: as §1

[3] = Plasma protein binding (rapid equilibrium dialysis), mice; type: in vitro ADME; conditions: mouse, pH 7.4, 37 °C, read-out: percentage bound to plasma protein (converted)
Method: (§2) The ability of eurycomanone to bind plasma protein was analysed in five types of plasma (mice, rat, dog, monkey, and human). Each type of plasma was spiked with eurycomanone (1 mM) to make the 10 µM test concentration of eurycomanone in the plasma. Equilibrium dialysis buffer (500 µL) at pH 7.4 was added to the right chamber in rapid equilibrium dialysis (RED), while the spiked plasma (300 µL) was added to the left chamber. The Teflon base plate was covered with aluminium foil and left on the shaking incubator at 37 °C for 4 h. The matrix was balanced by mixing 100 µL of the equilibrium buffer with the spiked plasma from the left chamber in RED before adding the stop solution (350 µL) to precipitate out the protein. The supernatant (10,000 rpm, 10 min, 4 °C) was collected and analysed using LC-MS/MS. The standards (propranolol, warfarin, and acebutalol) were analysed in duplicates.

[4] = design: method as in PMID 27572280; conditions: cited from earlier work
[5] = Plasma protein binding (rapid equilibrium dialysis), dog; type: in vitro ADME; conditions: pH 7.4, 37 °C, read-out: percentage bound to plasma protein (converted)
Method: as §2

[6] = Plasma protein binding (rapid equilibrium dialysis), monkey; type: in vitro ADME; conditions: pH 7.4, 37 °C, read-out: percentage bound to plasma protein (converted)
Method: as §2

[7] = Caco-2 cell permeability assay; type: in vitro ADME; conditions: human
Method: The Caco-2 assay was carried out after seeding the cells onto the membrane to form a confluent monolayer in 21 days. The media is removed from apical (A) and basolateral (B) chambers and the membrane is washed with HBSS buffer. Eurycomanone (10 µM, 200 µL) was added to the A compartment (which represents the intestinal lumen), and buffer (300 µL) was added to the B compartment (representing the blood), and vice versa. The plate was kept in a shaking incubator (37 °C) for 1 h. The amount of eurycomanone that had permeated across the cells was measured by LC-MS/MS, and the apparent permeability (Papp) values and efflux ratio were calculated. The expression of P-glycoprotein (P-gp) by differentiated Caco-2 cells was confirmed by measuring the Papp value and efflux ratio of vinblastine with and without the presence of a competing P-gp substrate, cyclosporine A. Eurycomanone was also measured with the presence of cyclosporine A to investigate whether eurycomanone may be transported via P-gp transporters.

Aqueous solubility = type: physicochemical; conditions: aqueous buffer, kinetic from dmso stock, room temperature, 2% DMSO
Method: The aqueous […] was estimated by adding 10 µL of eurycomanone stock solution (10 mM) to 490 µL of aqueous buffer at pH 5.4, pH 7.4 and DMSO in triplicates in deep-well plates. […] The plate was kept on a shaker (300 rpm) at room temperature for 16 h. The plate was then centrifuged at 25 °C, 4000 rpm for 25 min. The supernatant was transferred and analysed using LC-MS/MS.
Peak area 1 = peak area of the compound in 2% DMSO at the different pH levels.
Peak area 2 = peak area of the compound in 100% DMSO.

[8] = Liver microsome metabolic stability, rat; type: in vitro ADME; conditions: rat liver microsomes
Method: The liver microsome stability assay of eurycomanone was estimated using phase I and phase II enzymes in five types of microsomes (mice, rat, dog, monkey, and human). Eurycomanone at 1 mM (20 µL), microsomes at 0.3 mg/mL (20 µL), and 10 mg/mL of alamethicin in 1:1 DMSO and methanol (20 µL) were preincubated at 37 °C for 10 min. The cofactor, 5 mM UDPGA (20 µL), and 1 mM NADPH (20 µL) were added to make the final assay volume of 100 µL. At timepoints 0, 15, 30, 45, 60, and 90 min, […] of the reaction mixture is taken out and added to the stop solution. The supernatants (10,000 rpm, 10 min, 4 °C) were collected and analysed using LC-MS/MS. The standards used for mice and rat liver microsomes were propranolol and dasatinib. The standards used with the dog and monkey liver microsomes were propranolol and midazolam, while the standards used with the human liver microsomes were propranolol and terfinadine.

[9] = Plasma protein binding (rapid equilibrium dialysis), rat; type: in vitro ADME; conditions: rat, plasma, pH 7.4, rat plasma
Method: as §2

plasma protein = test: as above; type: in vitro ADME; conditions: rat plasma, 10 µM, 37 °C, 4 h
Method: as §2

Plasma stability, rat = type: in vitro ADME; conditions: 5 µM, 37 °C, up to 4 h
Method: as §1

[10] = read-out: Intrinsic clearance (Clint)

Q: Which plasma stability (Plasma stability, mice) does the source give for `C=C1[C@@H](O)[C@]2(O)OC[C@]34[C@H]2[C@@]2(C)[C@H](O)C(=O)C=C(C)[C@@H]2C[C@H]3OC(=O)[C@H](O)[C@@]14O` [Eurycomanone] here?
A: slightly lower

Q: And the “Half-life (t1/2)” value [1]?
A: >1.5 h

Q: And the half-life [1]?
A: > 1.5 h

Q: And the hepatocyte CLint [1, 10]?
A: 0.67 µL/min/1e6 cells

Q: What about the tumour suppression [2] of the same compound?
A: tumour suppression ability was demonstrated

Q: And the plasma stability (Plasma stability, human)?
A: highly stable

Q: And the fraction unbound at 4 h, 10 µM [3]?
A: 0.784

Q: What about the Cmax [4] of the same compound?
A: 0.04043 µg/mL

Q: And the fraction unbound at 4 h, 10 µM [5]?
A: 0.322

Q: And the fraction unbound at 4 h, 10 µM [6]?
A: 0.646

Q: What about the Papp at 1 h, 10 µM ([7]; Caco-2, Caco-2, A to B) of the same compound?
A: 4.5 nm/s

Q: What about the Papp at 1 h, 10 µM ([7]; Caco-2, Caco-2, B to A) of the same compound?
A: 7.3 nm/s

Q: And the efflux ratio at 1 h, 10 µM ([7]; Caco-2, Caco-2, read-out: Efflux Ratio)?
A: < 2

Q: And the solubility at 16 h (Aqueous solubility; pH 5.4, 16 h)?
A: 206 µM (≈ 83.9 µg/mL)

Q: What about the solubility at 16 h (Aqueous solubility; pH 7.4, 16 h) of the same compound?
A: 205 µM (≈ 83.9 µg/mL)

Q: And the “Half-life (t1/2)” value [8]?
A: >1.5 h

Q: What about the half-life at 200 µM [8] of the same compound?
A: > 1.5 h

Q: And the CLint scaled at 200 µM [8, 10]?
A: 4.99 L/h/kg

Q: And the fraction unbound at 4 h, 10 µM ([9]; 10 µM, 37 °C, 4 h, read-out: percentage bound to plasma protein (converted))?
A: 0.699

Q: And the fraction unbound at 4 h, 10 µM ([9]; read-out: unbound fraction)?
A: 0.7

Q: What about the “percentage bound to plasma protein” value (plasma protein) of the same compound?
A: 30%

Q: And the plasma stability (Plasma stability, rat)?
A: highly stable
